The test system of data set [1] is Neutrophil. In words: Inhibition of immune complex-stimulated neutrophil oxidative metabolism in New Zealand white rabbit neutrophils assessed as ROS generation at 50 uM after 30 mins by lucigenin enhanced chemiluminescence assay. The class given is functional. The note with it: Oryctolagus cuniculus, 0.5 h.
Data set [2] relates to Neutrophil. In words: Inhibition of immune complex-stimulated neutrophil oxidative metabolism in New Zealand white rabbit neutrophils assessed as ROS generation at 50 uM after 30 mins by luminol enhanced chemiluminescence assay. Type of data set: functional. The note with it: Oryctolagus cuniculus, 0.5 h.
The subject of data set [3] is Neutrophil. Kind of data set: Inhibition of immune complex-stimulated neutrophil oxidative metabolism in New Zealand white rabbit neutrophils assessed as ROS generation after 30 mins by lucigenin enhanced chemiluminescence assay. The class given is functional, cell-based. The note with it: Oryctolagus cuniculus, 0.5 h; for pIC50: read-out: IC50; for IC50: read-out: pIC50 (converted).

For data set [4], the system named is Neutrophil. Kind of data set: Inhibition of immune complex-stimulated neutrophil oxidative metabolism in New Zealand white rabbit neutrophils assessed as ROS generation after 30 mins by luminol enhanced chemiluminescence assay. Type of data set: functional, cell-based. Conditions: Oryctolagus cuniculus, 0.5 h; for pIC50: read-out: IC50; for IC50: read-out: pIC50 (converted).

The nature of data set [5]: Cytotoxicity against New Zealand white rabbit neutrophils assessed as cell viability at 50 uM after 30 mins by trypan blue exclusion test. Type of data set: cell-based, Oryctolagus cuniculus, Neutrophil. The note with it: read-out: Activity.
Data set [6] can be described thus: Cytotoxicity against New Zealand white rabbit neutrophils assessed as LDH release at 50 uM after 30 mins by spectrophotometry. Type of data set: cell-based, Oryctolagus cuniculus. The note with it: neutrophil, 0.5 h. (LDH leaks from cells whose membrane has failed.)

Each structure is given as a SMILES string. pIC50: −log10 of the molar value.

On to `COC(=O)Oc1ccc2cc(-c3ccc4c(c3)OCO4)c(=O)oc2c1`, for which the inhibition – broadly, the change of the read-out against control, counted positive when it falls – at 50 µM with Neutrophil [1] was 67.1%; in the data set with Neutrophil [2] it was 7.9%. Moreover, the pIC50 (usually the IC50 on a negative log10 scale, so that one unit is a factor of ten) in the data set on Neutrophil [3] is 5.14; in the data set with Neutrophil [4] it was less than 4.30. Further, the IC50 in the data set on Neutrophil [3] is no less than 7.24 µM. In addition, the viability at 0.5 h, 50 µM in data set [5] stood at 94.3%. In addition, the Activity in data set [6] worked out at 13.8%.
Take `O=c1oc2ccc(O)cc2cc1-c1ccc(O)c(O)c1`: the inhibition at 50 µM with Neutrophil [1] is 98.7%; in the data set with Neutrophil [2], 99.2%. The figures for the pIC50 in the data set on Neutrophil [3] and with Neutrophil [4] were 5.36 and 5.31, respectively. Besides, the IC50 in the data set on Neutrophil [3] is 4.47 µM; with Neutrophil [4], 4.9 µM. Also, in data set [5], the viability at 0.5 h, 50 µM amounted to 92.8%. Besides, in data set [6], the Activity was determined as 11.9%.
`COC(=O)Oc1ccc(-c2cc3cc(OC(=O)OC)c(OC(=O)OC)cc3oc2=O)cc1OC(=O)OC`: the inhibition at 50 µM in the data set with Neutrophil [1] and in the data set with Neutrophil [2] was 99.9% each time. Also, the pIC50 in the data set on Neutrophil [3] and with Neutrophil [4] was 6.40 in each case. Also, the IC50 in the data set on Neutrophil [3] is 0.363 µM; with Neutrophil [4], 0.389 µM. In addition, in data set [5], the viability at 0.5 h, 50 µM amounted to 88.8%. The Activity in data set [6] stood at 20.7%.
With `O=c1oc2cc(O)ccc2cc1-c1ccc2c(c1)OCO2`, the inhibition at 50 µM in the data set on Neutrophil [1] worked out at 79.4%; in the data set with Neutrophil [2], 17.5%. Further, the pIC50 in the data set on Neutrophil [3] was 5.07; in the data set with Neutrophil [4] it was less than 4.30. Also, the IC50 in the data set with Neutrophil [3] was 8.51 µM. Moreover, the viability at 0.5 h, 50 µM in data set [5] worked out at 94.3%. The Activity in data set [6] was determined as 11.1%.
With `O=c1oc2ccc(O)cc2cc1-c1ccc2c(c1)OCO2`, the inhibition at 50 µM in the data set on Neutrophil [1] amounted to 83.5%; in the data set with Neutrophil [2], 23.2%. In addition, the figures for the pIC50 in the data set on Neutrophil [3] and in the data set on Neutrophil [4] were 5.25 and less than 4.30, respectively. The IC50 with Neutrophil [3] is 5.62 µM. Besides, the viability at 0.5 h, 50 µM in data set [5] turned out to be 93.8%. Besides, the Activity in data set [6] stood at 9%.
Turning to `COC(=O)Oc1ccc2oc(=O)c(-c3ccc4c(c3)OCO4)cc2c1`, the inhibition at 50 µM in the data set on Neutrophil [1] turned out to be 68%; in the data set with Neutrophil [2], 13.7%. The pIC50 with Neutrophil [3] is 5.27; with Neutrophil [4], less than 4.30. Also, the IC50 in the data set on Neutrophil [3] was 5.37 µM. Besides, the viability at 0.5 h, 50 µM in data set [5] came out at 95.5%. Also, the Activity in data set [6] was determined as 11.4%.
With `COC(=O)Oc1cc2cc(-c3ccc4c(c3)OCO4)c(=O)oc2cc1OC(=O)OC`, the inhibition at 50 µM with Neutrophil [1] amounted to 99%; with Neutrophil [2], 99.4%. Also, the pIC50 with Neutrophil [3] and in the data set with Neutrophil [4] was 6.15 each time. The values for the IC50 with Neutrophil [3] and in the data set with Neutrophil [4] were 0.692 µM and 0.661 µM, respectively. In addition, the viability at 0.5 h, 50 µM in data set [5] stood at 95%. Besides, the Activity in data set [6] is reported as 11.9%.
As for `O=c1oc2ccc(O)cc2cc1-c1cccc(O)c1`, the results for the inhibition at 50 µM in the data set on Neutrophil [1] and in the data set on Neutrophil [2] were 94.1% and 31.7%, respectively. The pIC50 with Neutrophil [3] is 5.28; with Neutrophil [4], less than 4.30. The IC50 in the data set on Neutrophil [3] is 5.25 µM. Also, the viability at 0.5 h, 50 µM in data set [5] was 93.8%. The Activity in data set [6] amounted to 11.2%.
With `COC(=O)Oc1ccc2oc(=O)c(-c3ccccc3)cc2c1`, the inhibition at 50 µM was 80.5% with Neutrophil [1] and 50.5% in the data set on Neutrophil [2]. Further, the figures for the pIC50 in the data set on Neutrophil [3] and in the data set with Neutrophil [4] were 5.13 and 4.51, respectively. For the same compound, the IC50 with Neutrophil [3] was 7.41 µM; with Neutrophil [4], 30.9 µM. In addition, the viability at 0.5 h, 50 µM in data set [5] was found to be 93.8%. Moreover, in data set [6], the Activity is given as 11.3%.
With `O=c1c(O)c(-c2ccc(O)c(O)c2)oc2cc(O)cc(O)c12` [QUERCETIN], the inhibition at 50 µM in the data set with Neutrophil [1] and with Neutrophil [2] was 99.9% each time. Besides, the pIC50 with Neutrophil [3] is 5.33; in the data set with Neutrophil [4] it was 5.62. Further, the viability at 0.5 h, 50 µM in data set [5] came to 93%. Also, the Activity in data set [6] was 10.9%.
For `COC(=O)Oc1ccc2oc(=O)c(-c3ccc(OC(=O)OC)c(OC(=O)OC)c3)cc2c1`, the inhibition at 50 µM with Neutrophil [1] is 97.5%; with Neutrophil [2] it was 92.3%. Moreover, the figures for the pIC50 in the data set with Neutrophil [3] and with Neutrophil [4] were 5.74 and 5.70, respectively. Also, the values for the IC50 in the data set on Neutrophil [3] and in the data set on Neutrophil [4] were 1.78 µM and 2.04 µM, respectively. Also, the viability at 0.5 h, 50 µM in data set [5] was 93.3%. The Activity in data set [6] is listed as 9.3%.
Regarding `O=c1oc2cc(O)c(O)cc2cc1-c1ccc2c(c1)OCO2`, the results for the inhibition at 50 µM with Neutrophil [1] and in the data set on Neutrophil [2] were 99.6% and 99.8%, respectively. The negative-log IC50 (pIC50) with Neutrophil [3] and with Neutrophil [4] was 6.15 throughout. Besides, the IC50 in the data set with Neutrophil [3] is 0.724 µM. Also, the viability at 0.5 h, 50 µM in data set [5] was 93.2%. In addition, in data set [6], the Activity is reported as 15.3%.
As for `O=c1oc2ccccc2cc1-c1ccccc1`, the inhibition at 50 µM in the data set on Neutrophil [1] was determined as 27.9%; in the data set on Neutrophil [2], 9%. The pIC50 with Neutrophil [3] and in the data set on Neutrophil [4] was less than 4.30 throughout. Besides, the viability at 0.5 h, 50 µM in data set [5] came out at 90.3%. Besides, the Activity in data set [6] was 17.1%.
As for `COC(=O)Oc1cccc(-c2cc3cc(OC(=O)OC)ccc3oc2=O)c1`, the inhibition at 50 µM amounted to 82.1% with Neutrophil [1] and 66.3% with Neutrophil [2]. The values for the pIC50 in the data set on Neutrophil [3] and in the data set on Neutrophil [4] were 5.16 and 4.66, respectively. Also, the IC50 is 6.92 µM in the data set on Neutrophil [3] and 21.9 µM in the data set with Neutrophil [4]. Besides, the viability at 0.5 h, 50 µM in data set [5] was found to be 94%. The Activity in data set [6] is 9.3%.
Consider `COC(=O)Oc1ccc(-c2cc3cc(OC(=O)OC)ccc3oc2=O)cc1`, for which the inhibition at 50 µM with Neutrophil [1] worked out at 92.5%; with Neutrophil [2], 60.3%. Besides, the pIC50 is 5.40 in the data set on Neutrophil [3] and 4.56 in the data set with Neutrophil [4]. Besides, the IC50 was 3.98 µM with Neutrophil [3] and 27.5 µM with Neutrophil [4]. In data set [5], the viability at 0.5 h, 50 µM is 92.5%. In addition, the Activity in data set [6] worked out at 11.6%.
In the case of `O=c1oc2ccc(O)cc2cc1-c1ccccc1`, the inhibition at 50 µM in the data set on Neutrophil [1] was determined as 83.5%; with Neutrophil [2], 21.8%. Moreover, the pIC50 with Neutrophil [3] was 5.10; with Neutrophil [4], less than 4.30. The IC50 with Neutrophil [3] is 7.94 µM. Moreover, the viability at 0.5 h, 50 µM in data set [5] came out at 92.3%. Besides, the Activity in data set [6] is 10.7%.
For the compound `O=c1oc2ccc(O)cc2cc1-c1ccc(O)cc1`, the inhibition at 50 µM in the data set on Neutrophil [1] was 95.7%; in the data set on Neutrophil [2] it was 69.8%. Moreover, the pIC50 was 5.37 in the data set on Neutrophil [3] and 4.53 with Neutrophil [4]. Besides, the figures for the IC50 with Neutrophil [3] and in the data set on Neutrophil [4] were 4.37 µM and 29.5 µM, respectively. Moreover, the viability at 0.5 h, 50 µM in data set [5] amounted to 89.5%. The Activity in data set [6] amounted to 18.3%.
For the compound `O=c1oc2cc(O)c(O)cc2cc1-c1ccc(O)c(O)c1`, the inhibition at 50 µM in the data set with Neutrophil [1] worked out at 94.9%; in the data set on Neutrophil [2], 92.4%. Besides, the pIC50 was 5.28 in the data set on Neutrophil [3] and 4.87 in the data set with Neutrophil [4]. Also, the IC50 with Neutrophil [3] is 5.25 µM; in the data set on Neutrophil [4], 13.5 µM. The viability at 0.5 h, 50 µM in data set [5] is 92%. Also, the Activity in data set [6] turned out to be 10.5%.
As for `COC(=O)Oc1ccc2oc(=O)c(-c3ccccc3OC(=O)OC)cc2c1`, the values for the inhibition at 50 µM with Neutrophil [1] and with Neutrophil [2] were 96.5% and 94.6%, respectively. For the same compound, the pIC50 in the data set with Neutrophil [3] is 5.59; in the data set with Neutrophil [4], 5.54. Also, the values for the IC50 in the data set on Neutrophil [3] and with Neutrophil [4] were 2.57 µM and 2.88 µM, respectively. Further, in data set [5], the viability at 0.5 h, 50 µM was determined as 90.3%. Further, in data set [6], the Activity is recorded as 14.6%.
With `O=c1oc2ccc(O)cc2cc1-c1ccccc1O`, the inhibition at 50 µM with Neutrophil [1] is 99.9%; in the data set on Neutrophil [2] it was 99%. For the same compound, the pIC50 in the data set with Neutrophil [3] was 5.60; with Neutrophil [4], 5.55. The IC50 in the data set on Neutrophil [3] was 2.51 µM; with Neutrophil [4] it was 2.82 µM. Further, the viability at 0.5 h, 50 µM in data set [5] came to 94.8%. For the same compound, the Activity in data set [6] was determined as 9.8%.
For the compound `O=c1oc2ccccc2cc1-c1ccc2c(c1)OCO2`, the inhibition at 50 µM in the data set on Neutrophil [1] was 5.7%; in the data set with Neutrophil [2], 10.1%. Besides, the pIC50 in the data set on Neutrophil [3] and in the data set with Neutrophil [4] was less than 4.30 each time. For the same compound, the viability at 0.5 h, 50 µM in data set [5] was 96%. Moreover, the Activity in data set [6] is reported as 11.9%.

Source of the values: ChEMBL document CHEMBL1156679, “Inhibition of immune complex-mediated neutrophil oxidative metabolism: a pharmacophore model for 3-phenylcoumarin derivatives using GRIND-based 3D-QSAR and 2D-QSAR procedures” (Eur J Med Chem, 2008).
